Key:
A549 cell line = assay: Viability of A549 cells, XTT-based assay, with or without TRAIL; assay type: cell-based, human
Experimental: FIG. 4: C12 sensitizes long cancer cell line A549 to TRAIL. (A) Viability of cells was examined after 24-hour incubation in media containing TRAIL (50 ng/ml), compound (C12) (1 μM), compound (C12R) (25 μM) or the indicated combination of TRAIL (T) with (C12) or (C12R). The chemical structures of (C12) and its stereoisomer (C12R) are shown on the right. (B) Viability of cells was examined after 24-hour incubation in media, containing TRAIL (50 ng/ml) and the indicated doses of C12. Viable cells remaining after the treatment were determined as a function of mitochondrial activity of living cells according to XTT-based toxicology assay kit (Sigma) and are shown as a percentage of viable untreated cells.
To test this hypothesis, we examined the effect of C12 in vitro on the activity of TRAIL against A549 cell line derived from a cancer sample of the human lung.
(§1) Cytotoxicity was determined by using the XTT-based toxicology assay kit (Sigma, St. Louis, Miss.) in accordance with the manufacturer's instructions. For some experiments, to confirm the apoptotic nature of toxicity, cells were analyzed using protocols and instructions of the Annexin V-FITC apoptosis detection kit (Biovision, Mountain View, Calif.). In addition, caspase 3, 8 and 9 activities were determined by colorimetric assays (R&D System), and the data are expressed as fold increases compared to the values of untreated or control-treated cells (n=5).

[1] = tested on: primary human hepatocytes; assay: Viability and apoptosis of primary human hepatocytes from normal donors; assay type: cell-based
Experimental: FIG. 8: Safety and pro-apoptotic. activity of (C12). Cells were incubated with TRAIL, (C12), […] (Bor) or a combination of TRAIL and (C12) or Bor as indicated, and cell viability (top panels) or the cleavage of PARP (bottom panels) was determined. (A) Lung cancer cell line A549. (B) Primary human hepatocytes from normal donor.
Therefore, to assess a potential utility of C12 for anti-cancer therapy, we compared the effects of these two compounds—(C12) and bartezomid (Bor)—on TRAIL-mediated apoptosis in cancerous A549 cells and primary human hepatocytes.
Cancer and normal cell culture. Lung cancer cell line A549 and colon cancer cell line HT29 were purchased from ATCC. Breast cancer cell line MDA-MB-468 was received from J. C. Reed (The Burnham Institute, La Jolla, Calif.). Cell lines were maintained in growth medium (GM): DMEM medium (4.5 g/l glucose) supplemented with 10% FBS (HyClone, Logan, Utah), L-glutamine, penicillin/streptomycin and nonessential ammo acids (Invitrogen, Carlsbad, Calif.). Normal human bronchial epithelial (NHBE) cells and normal human mammary epithelial (NHME) cells were obtained from Cambrex (East Rutherford, N.J.) and cultured as recommended by the manufacturer. Normal human colon smooth muscle cells were obtained from ScienCell Research Lab (San Diego, Calif.) and cultured as recommended by the manufacturer. Primary cultures of human hepatocytes (freshly plated; not cryopreserved) and culture medium were obtained from Celsis In Vitro Technologies (Baltimore, Md.). Upon receipt of the cells, the medium was gently aspirated from each well and replenished with InVitroGRO HI medium supplemented with Torpedo Antibiotic Mix (Celsis), and the plates were kept in a 5% CO2, at 37° C. in an incubator at saturating humidity. After 2-4 h, cells were stimulated as described in the text and FIG. legends.
as §1

sXBP1 (UPR) = assay: RT-PCR assay of spliced XBP1 mRNA (sXBP1) in macrophages; assay type: cell-based, mouse; conditions: FIG. 1D and 1E
Excerpt: FIG. 1: C12 induces the UPR in mammalian cells. (A and B). Comparison of the macrophage responsiveness to P. aeruginosa (P.a.), S. typhimurium (S.t), and S. aureus (S.a.). RT-PCR assay of XBP1 (A) and Western blot analysis (B) of p38, its phosphorylated form (p-p38) as well as phosphorylated forms of PERK (p-PERK) and eIF2α (p-eIF2α) in cell extracts after treatment with bacteria are shown. (C) Macrophages were stimulated with P. aeruginosa wild type (wt) or lasI mutant (ΔlasI), and cell extracts (total RNA or total protein) were prepared and analyzed as in (A and B). […] (F) Total RNA was prepared from lung of mice after inoculation of vehicle (-) or (C12) and analyzed in (D). […]
Among key biochemical signatures of the multicomponent ER stress pathway, known as the unfolded protein response (UPR), are the phosphorylation of the α-subunit of eukaryotic translation initiation factor-2 (eIF2α) and activation of the transcription factor XBP1/Hac1 (X-box binding protein-1 in metazoans and homologous to ATF/CREB in yeast, respectively) ^11. […] To initiate our studies, we exposed bone marrow-derived macrophages (BMDM) to these bacteria, and macrophage responsiveness was analyzed for biochemical markers of the UPR and the phosphorylation of the mitogen-activated protein kinase p38, as a common marker of TLR pathways. […]

cancerous cells = assay: Sensitization of cancerous cells to TRAIL-mediated apoptosis (SAR panel); assay type: cell-based; conditions: a number of cancerous cells
Excerpt: Since (C12) is a prototypic member of the 3-oxo-AHL family, the structure-activity-relation (SAR) investigations were warranted to determine generic structural features of AHL, which are required for a cancer-stop and cancer preventing activity as well as for activation of the UPR. To address this questions, a set of AHLs and their analogs were synthesized (see List of AHLs and analogs), and the biological activity of ail compounds were examined on a panel of cancerous and normal cells. The prototypic examples of biochemical data for the selected analogs are shown in FIG. 9 and FIG. 10, whereas Table 2 summarizes the SAR studies for all compounds.
(§2) Cell stimulation. In all experiments, BMDM were stimulated with LPS (100 ng/ml), AHL (10-25 μM; usually BMDM and primary macrophages were stimulated by 25 μM of C12) or their combination as indicated in the figure legends. If not indicated, cancer and normal cells were stimulated with 40 ng/ml of TNFα, 20 ng/ml TRAIL and 10 μM (in case of cancer cells) or 25 μM (in case of normal cells) of AHL.

[2] = tested on: bone marrow-derived macrophages (BMDM); assay: Responses of bone marrow-derived macrophages to AHLs (toxicity, Western blot); assay type: cell-based, mouse
Experimental: FIG. 13. AHL-mediated inhibition of inflammation-induced NF-κB signaling is sufficient for rendering tumors susceptible to TRAIL-induced apoptosis. a) Western blot analysis of PARP cleavage in cancer cells stimulated for 3 h with TRAIL or its combination with different AHLs as indicated, b) Western blot analysis of PARP cleavage as well as phosphorylated forms of eIF2α and p38 in extracts from bone marrow-derived macrophages (BMDM) stimulated with (C12) or (3-N2), i.e., (S)-(3-N2), as indicated, c) Western blot analysis of PARP cleavage and temporal profiles of IκBα expression in BMDM extracts prepared after treatment with LPS or its combination with (C12) or (3-N2). d) Inhibitory effect of (C12) and its derivatives on LPS-induced TNF production in BMDM. e) Lung cancer cells were exposed to (3-N2) (10 μM), TRAIL (0.5 ng/ml), TNF (20 ng/ml) or their combinations as indicated. After 2 h, cell lysates were prepared and analyzed by Western blot for PARP cleavage, IκBα and actin.
Mice, bone marrow-derived macrophages and other cell culture, C57BL/6 mice were purchased from the Jackson Laboratory (Bar Harbor, Me.). Bone marrow-derived macrophages (BMDM) and murine embryonic fibroblasts (MEF) were prepared by using standard protocols that were approved by the TSRI Animal Care and Use Committee. L929/NCTC clone 929 (connective tissue, mouse) cell lines were purchased from ATCC (Manassas, Va.). MEFs and L929 cell line were maintained in GM (see above). BMDM were cultured in 70% GM and 30% L929 conditioned medium. In general, cells (˜60-70% confluence) were incubated in fresh medium for 12-14 h before stimulation.
Antibodies and Western blot analysis. Anti-eIF2α, phospho-eIF2α[…](p-eIF2α), p38, p-p38 (Thr180/Tyr132), p-RelA (Ser536), p-I κB ? 32/36), PARP 20 antibodies were purchased from Cell Signaling; anti-RelA, I κB α, IκBβ were from Santa Cruz Biotechnology. Cellular extracts were prepared and analyzed by Western blot assay as previously described.^E3
as §2

[3] = tested on: TRAIL-treated lung cancer cells; assay: Toxicity against TRAIL-treated lung cancer cells; assay type: cell-based
Experimental: Considering the potential inherent pharmacokinetic liabilities associated with C12, a small series of compound (C12) analogues was tested against bone marrow-derived macrophages and TRAIL-treated lung cancer cells.
Cancer and normal cell culture. Lung cancer cell line A549 and colon cancer cell line HT29 were purchased from ATCC. Breast cancer cell line MDA-MB-468 was received from J. C. Reed (The Burnham Institute, La Jolla, Calif.). Cell lines were maintained in growth medium (GM): DMEM medium (4.5 g/l glucose) supplemented with 10% FBS (HyClone, Logan, Utah), L-glutamine, penicillin/streptomycin and nonessential ammo acids (Invitrogen, Carlsbad, Calif.). […]
as §1

cancer and normal cells = assay: XTT-based viability of cancer and normal cells grown 18 h (FIG. 12); assay type: cell-based; conditions: TRAIL alone or the same doses of C12 without TRAIL
Experimental: FIG. 12. (C12) promotes the TRAIL-mediated killing of cancer cells, a), c) Western blot analysis of PARP cleavage in cancer or normal cells treated for 3 h with TRAIL, (C12) or a combination of both, as indicated, b), d) XTT-based assay monitoring the viability of cancer and normal cells grown for 18 h in media containing TRAIL and the indicated doses of (C12). Cell survival was ˜100% in control samples (untreated cells) as well as in samples incubated with TRAIL alone or the same doses of (C12) without TRAIL.
Cancer and normal cell culture. Lung cancer cell line A549 and colon cancer cell line HT29 were purchased from ATCC. Breast cancer cell line MDA-MB-468 was received from J. C. Reed (The Burnham Institute, La Jolla, Calif.). […]
as §1

## CC(C)C[C@H](NC(=O)[C@H](Cc1ccccc1)NC(=O)c1cnccn1)B(O)O [Bor, bortezomib, reference compound]
A549 cell line; FIG. 8A
  sensitivity of A549 cells to TRAIL in the presence of compound: comparable increase in sensitivity
[1]; FIG. 8B
  toxicity and apoptosis in hepatocytes in the presence of TRAIL: substantially enhanced
  toxicity toward hepatocytes, drug alone: relatively low levels of toxicity

## CCCCCCCCCC(=O)CC(=O)N[C@@H]1CCOC1=O [Compound 2]
A549 cell line; C12 1 μM or 25 μM, C12R 25 μM, no TRAIL
  cell growth and viability, compound alone: practically unchanged
A549 cell line; TRAIL (50 ng/ml) and C12R (25 μM)
  cell growth and viability, combination with TRAIL: practically unchanged
sXBP1 (UPR)
  induction of sXBP1 / activation of the UPR: ineffective

## [N-]=[N+]=NCCCCCCCCCC(=O)CC(=O)N[C@H]1CCOC1=O [Compound 13]
Cancerous cells
  sensitization of cancerous cells to TRAIL-mediated apoptosis: strongly sensitize

## CCCCCCCCCC1(CC(=O)N[C@H]2CCOC2=O)N=N1 [Compound 15]
[2]; Western blot, FIG. 13b
  PARP cleavage in macrophages: did not induce
  eIF2α phosphorylation in macrophages: induced eIF2α phosphorylation in a similar fashion
  p38 phosphorylation in macrophages: did not induce
[2]; bone marrow-derived macrophages
  toxicity to macrophages: nontoxic
[2]; macrophages activated by LPS, FIG. 13c
  blocking LPS-induced re-synthesis of IκBα: equally effective
[3]; compared with bortezomib
  synergistic effects on TRAIL-induced apoptosis in cancer cells: comparable with those for an anti-cancer agent bortezomib
[3]; in the presence of TRAIL
  toxicity against TRAIL-treated cancer cells: exhibited toxicity
[1]; hepatocytes from normal donors
  toxicity to human hepatocytes, compound alone or in combination with TRAIL: non-toxic
Cancerous cells
  sensitization of cancerous cells to TRAIL-mediated apoptosis: strongly sensitize

## [N-]=[N+]=NCCCCCCCCCC1(CC(=O)N[C@H]2CCOC2=O)N=N1 [Compound 16]
Cancerous cells
  sensitization of cancerous cells to TRAIL-mediated apoptosis: strongly sensitize

## TRAIL: recombinant human tumor necrosis factor-related apoptosis-inducing ligand, purchased from R&D System
A549 cell line; TRAIL 50 ng/ml
  viability and growth, TRAIL alone: did not significantly affect
Cancer and normal cells
  Cell survival: ~100%
[1]; FIG. 8B
  viability of normal human hepatocytes, TRAIL alone: unchanged

— US9765061B2, “Trail enhancers for the selective killing of cancer cells” (The Scripps Research Institute, priority 2013, dated 2017)
